Assay results: ChEMBL document CHEMBL1201862, “PubChem BioAssay data set” (2004)
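Each compound was tested at five concentrations against cells in 96-well plates for 48 hours. GI50: concentration for 50% inhibition of growth.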 Active and inactive are the calls of the source. No stated cut-off is given here; in the data, active = GI50 up to about 1.1 µM and inactive = higher.

Columns and labels:
Experiment in all cases: growth of human tumour cells (NCI), 48 h
[1] = system: A498
[2] = system: CAKI-1
[3] = system: COLO 205
[4] = system: HCC 2998
[5] = system: HCT-116
[6] = system: HOP-62
[7] = system: HOP-92
[8] = system: M14
[9] = system: MDA-MB-435
[10] = system: MOLT-4
[11] = system: Malme-3M
[12] = system: OVCAR-5
[13] = system: SK-MEL-5
[14] = system: SK-OV-3
[15] = system: SN12C
[16] = system: UO-31
[17] = system: K562
[18] = system: LOX IMVI
[19] = system: NCI-H226
[20] = system: RXF 393

Measured: GI50

CO[C@](C(=O)OC[C@H]1[C@@H](COC(C)=O)[C@@H]2O[C@H]1c1cc3c(cc12)OCO3)(c1ccccc1)C(F)(F)F
inactive: [1] 28.5 µM | [2] 32.8 µM | [3] 28.6 µM | [4] 23.8 µM | [5] 13.6 µM | [6] 26.2 µM | [7] 34 µM | [8] 35.9 µM | [9] 38.5 µM | [10] 19.4 µM | [11] > 100 µM | [12] 30.9 µM | [13] 32.9 µM | [14] 89.7 µM | [15] 25.1 µM | [16] 10.4 µM

Nc1nc(N)c2ncn(-c3ccc(Br)cc3)c2n1
inactive: [1] 15.6 µM | [2] 7.21 µM | [3] > 50.5 µM | [4] 37.7 µM | [5] 25.5 µM | [6] 23.6 µM | [17] 11 µM | [18] 27 µM | [8] 14.6 µM | [9] 39.2 µM | [10] 11.6 µM | [11] 10.6 µM | [19] 40.6 µM | [12] 20.9 µM | [20] 14.2 µM | [13] 32.5 µM | [14] 15 µM | [15] 16.9 µM | [16] 13.5 µM

COc1c2cc(C(C)(C)C)cc1Cc1cccc(c1O)Cc1cc(C(C)(C)C)cc(c1OC)Cc1cccc(c1O)Cc1cc(C(C)(C)C)cc(c1OC)Cc1cccc(c1O)C2
inactive: [1] > 100 µM | [2] > 100 µM | [3] > 100 µM | [4] > 100 µM | [5] > 100 µM | [6] > 100 µM | [7] > 100 µM | [17] > 100 µM | [8] 55.6 µM | [9] > 100 µM | [10] > 100 µM | [11] > 100 µM | [12] > 100 µM | [20] > 100 µM | [13] > 100 µM | [15] > 100 µM | [16] > 100 µM

O=C(NCCCN1CCN(CCCNC(=O)Nc2cccc3ccccc23)CC1)Nc1cccc2ccccc12
inactive: [1] 15.3 µM | [2] 16.2 µM | [3] 15.7 µM | [4] 2.29 µM | [5] 14.4 µM | [6] 11.7 µM | [7] 13.8 µM | [17] 19.9 µM | [18] 8.49 µM | [8] 16.3 µM | [9] 16.2 µM | [11] 3.15 µM | [12] 15.1 µM | [20] 11.1 µM | [13] 16.6 µM | [15] 16.3 µM | [16] 16.6 µM

CNC(=S)/C(C#N)=C(\N)N1CCCC1
inactive: [1] > 100 µM | [2] > 100 µM | [3] > 100 µM | [4] > 100 µM | [5] > 100 µM | [6] > 100 µM | [17] > 100 µM | [9] > 100 µM | [10] > 100 µM | [11] > 100 µM | [19] > 100 µM | [12] > 100 µM | [20] > 100 µM | [13] > 100 µM | [14] > 100 µM | [15] > 100 µM | [16] > 100 µM

CCN(C(=O)N[C@@H](Cc1ccccc1)C(=O)N[C@@H](CC(C)C)C(=O)OC)c1ccccc1
inactive: [2] 32.6 µM | [3] 18 µM | [4] 30.8 µM | [5] 20.2 µM | [6] 34.4 µM | [7] 22.2 µM | [17] 31.3 µM | [18] 13.8 µM | [8] 8.24 µM | [9] 51.6 µM | [10] 15.8 µM | [19] 19.5 µM | [12] 23.2 µM | [20] 19.1 µM | [14] 40.6 µM | [15] 16 µM | [16] 18.1 µM

CC(O)C1CC1(CO)CNc1cc(Cl)nc(N)n1 (centres undefined)
inactive: [2] > 100 µM | [3] > 100 µM | [4] > 100 µM | [5] > 100 µM | [6] > 100 µM | [7] > 100 µM | [17] > 100 µM | [18] > 100 µM | [9] > 100 µM | [10] > 100 µM | [11] > 100 µM | [19] > 100 µM | [12] > 100 µM | [20] > 100 µM | [13] > 100 µM | [14] > 100 µM | [15] > 100 µM | [16] > 100 µM

CC(C)OC(=O)[C@@H](O)[C@H](CO)C1=CC([Si](C)(C)c2ccccc2)=CON1
inactive: [1] > 100 µM | [2] > 100 µM | [3] > 100 µM | [4] > 100 µM | [5] > 100 µM | [6] > 100 µM | [17] > 100 µM | [18] > 100 µM | [8] > 100 µM | [9] > 100 µM | [10] > 100 µM | [19] > 100 µM | [12] > 100 µM | [20] > 100 µM | [13] > 100 µM | [14] > 100 µM | [16] > 100 µM

COC(=O)C1CCN(C(=O)OC(C)(C)C)CC1
inactive: [1] > 100 µM | [2] > 100 µM | [3] > 100 µM | [4] > 100 µM | [5] > 100 µM | [6] > 100 µM | [7] > 100 µM | [18] > 100 µM | [8] > 100 µM | [9] > 100 µM | [10] > 100 µM | [11] > 100 µM | [12] > 100 µM | [13] > 100 µM | [15] > 100 µM | [16] > 100 µM

CC(C)(C)c1ccc(O)c(Br)c1
inactive: [1] > 100 µM | [3] > 100 µM | [4] 51.8 µM | [5] > 100 µM | [6] > 100 µM | [17] > 100 µM | [18] > 100 µM | [8] > 100 µM | [9] > 100 µM | [10] > 100 µM | [11] > 100 µM | [19] > 100 µM | [12] > 100 µM | [20] 34.1 µM | [13] > 100 µM | [14] > 100 µM | [15] > 100 µM | [16] > 100 µM

COc1ccc2c(=O)c(O)c(-c3ccc(OC)c(OC)c3)oc2c1
inactive: [1] 4.97 µM | [2] 3.44 µM | [3] 28.9 µM | [4] 27.9 µM | [5] 4.97 µM | [6] 3.98 µM | [7] 4.18 µM | [17] 4.53 µM | [18] 5.58 µM | [8] 5.45 µM | [9] 4.51 µM | [10] 3.22 µM | [11] 15.1 µM | [12] 20.8 µM | [13] 5.5 µM | [14] 5.42 µM | [16] 2.47 µM
